# Experimental data taken from US11092602B2, “Methods and compositions relating to proteasome inhibitor resistance” (Whitehead Institute for Biomedical Research, priority 2015, dated 2021).
# Entries after “also recorded” stand apart in the source; their conditions may differ. Residues, ends and D or L forms follow the SMILES beside them. *: point of attachment. Cbz = O=C(OCc1ccccc1)*
# Experiments:
# [1] = system: T47D cells; assay: Selleck anti-cancer compound library screen, PSMD2 KD versus control T47D cells (resazurin); format: cell-based, human; settings: 4 concentrations, 72 hours
# Description: After 48 hours the cells were collected, counted, and plated at 1000 cells/well in 384 well plates in duplicates for each cell line. Compounds from the Selleck Chemicals anti-cancer compound library β49 drugs in 4 concentrations; […]) were pinned the next day and viability was measured after 72 hours by the reduction of Resazurin (Ex=530 nm, Em=590 nm).
# The effect of each drug on viability of cells was calculated by averaging the duplicate experiments. The data is plotted in FIG. 16 as the log2 of the ratio of viability of PSMD2 KD versus control cells (log2 (shPSMD2/Control)).
# [2] = system: T47D cells; assay: CellTiter-Glo viability of PSMD2 KD versus control T47D cells with BCL2 family inhibitors; format: cell-based, human
# Description: Cell viability was measured by CellTiter-Glo® Luminescent Cell Viability Assay 72 hours after addition of the compounds to cells.
# [3] = system: IMR32 and Kelly cells; assay: CellTiter-Glo viability of IMR32 and Kelly neuroblastoma cells; format: cell-based; settings: 72 hours
# Description: IMR32 and Kelly cells were each cultured in the presence of bortezomib at concentrations ranging from 0.001 um to 0.100 um. […] The fold viability relative to culture in the absence of bortezomib was determined for each cell line.
# The fold viability relative to culture in the absence of the compound was determined for each cell line.
# [4] = system: IMR32 and Kelly cells; assay: as above; format: cell-based; settings: 72 hours; remark: listed apart in the source
# [5] = system: T47D cells; assay: Cell viability of T47D cells with doxycycline-inducible PSMD2 shRNA; format: cell-based, human; settings: for resistance of cells harboring the PSMD2 shRNA versus parental line (EC50): doxycycline 3 days, 96 hour culture
# Description: T47D cells harboring a doxycycline inducible control shRNA (GFP) or a doxycycline-inducible PSMD2 shRNA (TurboRFP) were incubated with doxycycline for 3 days. Cells were then split and grown in the absence of Dox and proteasome inhibitors were then added at various concentrations. Cells were maintained in culture and then counted.
# For the generation of the T47D Tet-inducible PSMD2 knockdown cell line—the TRIPZ vector with an inducible shRNA targeting PSMD2 was purchased from Dharmacon (clone V3THS_403760). It was introduced to the T47D cells according to manufactures protocol and cells were selected with puromycin 1 μg/ml for one week. The cells were exposed to doxycycline for 24 hours and cells were FACS sorted for the top 10% of most RFP expressing cells (highest expression of shRNA). The cells were further cultured in the absence of doxycycline and PSMD2 knockdown was induced as specified in the relevant Examples.
# Relative cell growth and survival were measured in 96-well microplate format in the shRNA experiments and in 384 well format in the drug toxicity assays, by using the fluorescent detection of resazurin dye reduction as an endpoint (544 nm excitation and 590 nm emission). 2,500 cells in 96 wells format or 1,000 cells in 384 well format were plated 24 hours before compound exposure (for 72 hours or indicated time). Each analysis was performed at least with three replicas.
# [6] = system: Saccharomyces cerevisiae; assay: Yeast DAmP strains MG132 sensitivity assay; format: cell-based; settings: 50 μM MG132, 48 hours
# Excerpt: Additionally, because the essential role of the proteasome in maintaining protein homeostasis is conserved across all eukaryotes (Hilt and Wolf, 1995), we asked whether reducing expression of 19S subunits confers resistance to proteasome inhibitors in an evolutionary distant organism—the yeast Saccharomyces cerevisiae. As the 19S regulatory complex components are essential for viability in yeast, we utilized a library of hypomorphic (DAmP) alleles for essential yeast genes. In this library, the expression of individual mRNA species is reduced from two to ten-fold by replacing the mRNA's 3′ untranslated region (Breslow et al., 2008).
# Yeast cells were grown over night in media containing L-proline as nitrogen source instead of ammonium sulfate. […] OD was measured over the period of 48 hours.
# [7] = system: T47D cells; assay: Competition co-culture of shPSMD2-RFP and shControl-GFP T47D cells, FACS and microscopy; format: cell-based, human; settings: 1:10 plating ratio; concentration-dependent
# Description: We created two cell lines—one line that expresses red fluorescent protein (turboRFP) and the doxycycline-inducible PSMD2-targeting shRNA and another line that expresses green fluorescent protein (GFP) and a doxycycline-inducible control shRNA (FIG. 6A). First, we induced shRNA expression with doxycycline for 48 hours. After recovery, we mixed shPSMD2-RFP and shControl-GFP cells at different ratios (either 1:1, 1:2, 1:5 or 1:10), adding the cells with reduced PSMD2 as the minority subpopulation. Twenty-four hours after plating, we treated these mixed populations of cells for 48 hours with increasing concentrations of bortezomib (5, 7.5 or 10 nM). We allowed the cells to recover in the absence of bortezomib and then we quantified the red and green cells by FACS analysis (FIG. 6A) and captured representative images by fluorescence microscopy (FIG. 6B).
# The experiment described in Example 10 was repeated with minor differences using a panel of different proteasome inhibitors: MLN2238, MLN9708, and oprozomib T47D cells harboring a doxycycline inducible control shRNA (GFP) or a doxycycline-inducible PSMD2 shRNA (TurboRFP) were incubated with doxycycline for 3 days. Cells were collected, counted, and plated at a 1:10 ratio of TurboRFP-expressing PSMD2 shRNA cells/GFP expression control shRNA cells in the absence of Dox. Proteasome inhibitors were added at the specified concentrations and cells were maintained in culture. Cells were allowed to recover in the absence of the proteasome inhibitor and then analyzed by FACS (FIG. 8B, top) or visualized by microscopy (FIG. 8B, bottom). In the absence of proteasome inhibitors, the initial plating ratio of these cells (1:10) was maintained over the duration of the experiment (FIG. 8B). […] The effect was concentration-dependent in that higher concentrations elicited more substantial shifts.
# cells were trypsinized in 100 μL Accumax® solution and further diluted into 100 μl PBSx1. The number of cells with red or green fluorescent proteins was measured by MACSQuant® VYB according to manufactures protocol. Images of RFP and GFP were created by overlaying images using Fiji software.
Molecule,"selective effect on viability, PSMD2 KD versus control cells (log2 (shPSMD2/Control)) [1]",sensitivity of IMR32 cells versus Kelly cells [3],shift of surviving cell populations towards PSMD2 shRNA cells [7],resistance of cells harboring the PSMD2 shRNA versus parental line (EC50) [5],other results
"CC1(C)CCC(c2ccc(Cl)cc2)=C(CN2CCN(c3ccc(C(=O)NS(=O)(=O)c4ccc(N[C@H](CCN5CCOCC5)CSc5ccccc5)c(S(=O)(=O)C(F)(F)F)c4)cc3)CC2)C1 [ABT-263, navitoclax]",selectively inhibits growth of T47D cancer cells that have a reduced level of PSMD2; also recorded: selectively reduce the viability of PSMD2 KD cells versus control cells,dramatically more sensitive; also recorded: significantly more sensitive,–,–,"sensitivity of PSMD2 KD cells versus control cells ([2]; 72 hours): more sensitive; sensitization by suppression of 19S subunit PSMD2 ([2]; doxycycline-induced): not sufficient, however, to induce a profound sensitization; preferential sensitivity of IMR32 versus Kelly cells, compared between BCL2 family inhibitors [4]: much greater; sensitivity after reintroduction of the PSMD5 subunit ([4]; IMR32 cells): did not significantly alter"
COc1ccc(-c2ccc3c(N4CCOCC4)nc(N4C[C@@H](C)O[C@@H](C)C4)nc3n2)cc1CO [Ku-0063794],selectively inhibit growth of T47D cancer cells that have a reduced level of PSMD2; also recorded: selectively reduce the viability of PSMD2 KD cells versus control cells,–,–,–,–
"CC(C)C[C@@H](C=O)NC(=O)[C@H](CC(C)C)NC(=O)[C@H](CC(C)C)NC(=O)OCc1ccccc1 [MG132, N-(benzyloxycarbonyl)leucinylleucinylleucinal] (Cbz-Leu-Leu-Leu-aldehyde)",–,–,–,–,resistance upon doxycycline-induced reduction of PSMD2 ([5]; PSMD2 shRNA versus control): significantly increased resistance; resistance of 19S subunit DAmP strains to proteasome inhibition [6]: five of these twelve strains had significantly increased resistance
"CC(C)C[C@H](NC(=O)CNC(=O)c1cc(Cl)ccc1Cl)B(O)O [MLN2238, ixazomib]",selectively reduce viability of control cells versus PSMD2 KD cells,–,substantially shifted the populations of surviving cells,–,–
CC(C)C[C@H](NC(=O)[C@H](CCc1ccccc1)NC(=O)CN1CCOCC1)C(=O)N[C@@H](Cc1ccccc1)C(=O)N[C@@H](CC(C)C)C(=O)[C@@]1(C)CO1 [carfilzomib],–,–,–,considerably more resistant,–
"Nc1nc(Cl)nc2c1ncn2[C@H]1C[C@H](O)[C@@H](CO)O1 [cladribine, 2-chlorodeoxyadenosine]",selectively inhibit growth of T47D cancer cells that have a reduced level of PSMD2; also recorded: selectively reduce the viability of PSMD2 KD cells versus control cells,–,–,–,–
"CCN(CC)C(=S)SSC(=S)N(CC)CC [disulfiram, tetraethylthiuram disulfide]",selectively inhibit growth of T47D cancer cells that have a reduced level of PSMD2; also recorded: selectively reduce the viability of PSMD2 KD cells versus control cells,dramatically more sensitive,–,–,–
CN(NC(=O)CC(=O)NN(C)C(=S)c1ccccc1)C(=S)c1ccccc1 [elesclomol],selectively inhibit growth of T47D cancer cells that have a reduced level of PSMD2; also recorded: selectively reduce the viability of PSMD2 KD cells versus control cells,dramatically more sensitive,–,–,–
COC[C@H](NC(=O)c1cnc(C)s1)C(=O)N[C@@H](COC)C(=O)N[C@@H](Cc1ccccc1)C(=O)[C@@]1(C)CO1 [oprozomib],–,–,substantially shifted the populations of surviving cells,considerably more resistant,–
ixazomib citrate [MLN9708],selectively reduce viability of control cells versus PSMD2 KD cells,–,substantially shifted the populations of surviving cells,considerably more resistant,–
